Tested on: 317291-083-R-J1-PDC complex spheroids, viability
Experiment: Anticancer human tumor 317291-083-R-J1-PDC patient-derived soft tissue sarcoma cell line growth inhibition [GQUAD]
Details: for IC50: curve of first compound; for viability, T/C: stronger effect = lower value
In short: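 Viability of tumor cells grown as complex spheroids with endothelial and stromal cells, exposed to drug combinations. Top concentration at or near clinical Cmax (else 10 microM), diluted in half-log increments.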

[1] = second compound 0.0316 µM, first compound 0.0316 µM
[2] = second compound 0.0316 µM, first compound 0.1 µM
[3] = second compound 0.0316 µM, first compound 0.316 µM
[4] = second compound 0.0316 µM, first compound 1 µM
[5] = second compound 0.0316 µM, first compound 3.16 µM
[6] = second compound 0.0316 µM, first compound 10 µM
[7] = second compound 0.1 µM, first compound 0.0316 µM
[8] = second compound 0.1 µM, first compound 0.1 µM
[9] = second compound 0.1 µM, first compound 0.316 µM
[10] = second compound 0.1 µM, first compound 1 µM
[11] = second compound 0.1 µM, first compound 3.16 µM
[12] = second compound 0.1 µM, first compound 10 µM
[13] = second compound 0.316 µM, first compound 0.0316 µM
[14] = second compound 0.316 µM, first compound 0.1 µM
[15] = second compound 0.316 µM, first compound 0.316 µM
[16] = second compound 0.316 µM, first compound 1 µM
[17] = second compound 0.316 µM, first compound 3.16 µM
[18] = second compound 0.316 µM, first compound 10 µM
[19] = second compound 1 µM, first compound 0.0316 µM
[20] = second compound 1 µM, first compound 0.1 µM
[21] = second compound 1 µM, first compound 0.316 µM
[22] = second compound 1 µM, first compound 1 µM
[23] = second compound 1 µM, first compound 3.16 µM
[24] = second compound 1 µM, first compound 10 µM
[25] = second compound 3.16 µM, first compound 0.0316 µM
[26] = second compound 3.16 µM, first compound 0.1 µM
[27] = second compound 3.16 µM, first compound 0.316 µM
[28] = second compound 3.16 µM, first compound 1 µM
[29] = second compound 3.16 µM, first compound 3.16 µM
[30] = second compound 3.16 µM, first compound 10 µM
[31] = second compound 10 µM, first compound 0.0316 µM
[32] = second compound 10 µM, first compound 0.1 µM
[33] = second compound 10 µM, first compound 0.316 µM
[34] = second compound 10 µM, first compound 1 µM
[35] = second compound 10 µM, first compound 3.16 µM
[36] = second compound 10 µM, first compound 10 µM
[37] = second compound 0.0316 µM, first compound 0.000999 µM
[38] = second compound 0.0316 µM, first compound 0.00316 µM
[39] = second compound 0.0316 µM, first compound 0.00999 µM
[40] = second compound 0.0316 µM, first compound 0.0999 µM
[41] = second compound 0.1 µM, first compound 0.000999 µM
[42] = second compound 0.1 µM, first compound 0.00316 µM
[43] = second compound 0.1 µM, first compound 0.00999 µM
[44] = second compound 0.1 µM, first compound 0.0999 µM
[45] = second compound 0.316 µM, first compound 0.000999 µM
[46] = second compound 0.316 µM, first compound 0.00316 µM
[47] = second compound 0.316 µM, first compound 0.00999 µM
[48] = second compound 0.316 µM, first compound 0.0999 µM
[49] = second compound 1 µM, first compound 0.000999 µM
[50] = second compound 1 µM, first compound 0.00316 µM
[51] = second compound 1 µM, first compound 0.00999 µM
[52] = second compound 1 µM, first compound 0.0999 µM
[53] = second compound 3.16 µM, first compound 0.000999 µM
[54] = second compound 3.16 µM, first compound 0.00316 µM
[55] = second compound 3.16 µM, first compound 0.00999 µM
[56] = second compound 3.16 µM, first compound 0.0999 µM
[57] = second compound 10 µM, first compound 0.000999 µM
[58] = second compound 10 µM, first compound 0.00316 µM
[59] = second compound 10 µM, first compound 0.00999 µM
[60] = second compound 10 µM, first compound 0.0999 µM
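Also: spheroids exposed to compounds for one week before readout.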
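For viability, T/C in this document: percent viability relative to DMSO vehicle wells taken as 100%.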

Compound: O=C(NO)c1cnc(N2CCN(S(=O)(=O)c3ccc4ccccc4c3)CC2)nc1 + Cc1[nH]c2ccc(F)cc2c1-c1nc2c3cccnc3c3ncccc3c2[nH]1
- IC50 (second compound 0.0316 µM): 0.153 µM
- IC50 (second compound 0.1 µM): 0.211 µM
- IC50 (second compound 0.316 µM): 0.113 µM
- IC50 (second compound 1 µM): 0.0602 µM
- IC50 (second compound 3.16 µM): < 0.0316 µM
- IC50 (second compound 10 µM): < 0.0316 µM
- viability, T/C [1]: 99.5%
- viability, T/C [2]: 71.4%
- viability, T/C [3]: 13.9%
- viability, T/C [4]: 0.16%
- viability, T/C [5]: 0.07%
- viability, T/C [6]: 0.9%
- viability, T/C [7]: 117%
- viability, T/C [8]: 102%
- viability, T/C [9]: 22.1%
- viability, T/C [10]: 0.09%
- viability, T/C [11]: 0.03%
- viability, T/C [12]: 0.45%
- viability, T/C [13]: 66.5%
- viability, T/C [14]: 55.2%
- viability, T/C [15]: 6.53%
- viability, T/C [16]: 0.09%
- viability, T/C [17]: 0.04%
- viability, T/C [18]: 0.16%
- viability, T/C [19]: 60.6%
- viability, T/C [20]: 41.6%
- viability, T/C [21]: 10.5%
- viability, T/C [22]: 0.06%
- viability, T/C [23]: 0.09%
- viability, T/C [24]: 0.07%
- viability, T/C [25]: 42.7%
- viability, T/C [26]: 19.4%
- viability, T/C [27]: 3.52%
- viability, T/C [28]: 0.44%
- viability, T/C [29]: 0.18%
- viability, T/C [30]: 0.72%
- viability, T/C [31]: 42.9%
- viability, T/C [32]: 35.3%
- viability, T/C [33]: 4.65%
- viability, T/C [34]: 0.13%
- viability, T/C [35]: 0.22%
- viability, T/C [36]: 0.17%

Compound: CCc1c2c(nc3ccc(O)cc13)-c1cc3c(c(=O)n1C2)COC(=O)[C@]3(O)CC + Cc1[nH]c2ccc(F)cc2c1-c1nc2c3cccnc3c3ncccc3c2[nH]1
- IC50 (second compound 0.0316 µM): 0.00169 µM
- IC50 (second compound 0.1 µM): 0.00159 µM
- IC50 (second compound 0.316 µM): 0.00151 µM
- IC50 (second compound 1 µM): 0.00176 µM
- IC50 (second compound 3.16 µM): 0.00146 µM
- IC50 (second compound 10 µM): < 0.000999 µM
- viability, T/C [37]: 71.4%
- viability, T/C [38]: 23.9%
- viability, T/C [39]: 12.8%
- viability, T/C [1]: 8.37%
- viability, T/C [40]: 6.91%
- viability, T/C [3]: 4.31%
- viability, T/C [41]: 70.2%
- viability, T/C [42]: 19.9%
- viability, T/C [43]: 8.9%
- viability, T/C [7]: 10%
- viability, T/C [44]: 7.96%
- viability, T/C [9]: 3.98%
- viability, T/C [45]: 66.7%
- viability, T/C [46]: 18.4%
- viability, T/C [47]: 16.5%
- viability, T/C [13]: 8.55%
- viability, T/C [48]: 6.58%
- viability, T/C [15]: 4.87%
- viability, T/C [49]: 75.8%
- viability, T/C [50]: 22.1%
- viability, T/C [51]: 14.6%
- viability, T/C [19]: 9.41%
- viability, T/C [52]: 6.65%
- viability, T/C [21]: 5.39%
- viability, T/C [53]: 65.4%
- viability, T/C [54]: 18.1%
- viability, T/C [55]: 8.2%
- viability, T/C [25]: 8.72%
- viability, T/C [56]: 6.44%
- viability, T/C [27]: 4.32%
- viability, T/C [57]: 37.7%
- viability, T/C [58]: 14.2%
- viability, T/C [59]: 9.41%
- viability, T/C [31]: 9.06%
- viability, T/C [60]: 5.65%
- viability, T/C [33]: 7.19%

Compound: C=CCn1c(=O)c2cnc(Nc3ccc(N4CCN(C)CC4)cc3)nc2n1-c1cccc(C(C)(C)O)n1 + Cc1cnc(CNC(=O)c2c(=O)c3ccc(N4CCCN(C)CC4)nc3n3c2sc2ccccc23)cn1
- IC50 (second compound 0.0316 µM): 0.171 µM
- IC50 (second compound 0.1 µM): 0.0647 µM
- IC50 (second compound 0.316 µM): < 0.0316 µM
- IC50 (second compound 1 µM): < 0.0316 µM
- IC50 (second compound 3.16 µM): < 0.0316 µM
- IC50 (second compound 10 µM): < 0.0316 µM
- viability, T/C [1]: 79.7%
- viability, T/C [2]: 65.5%
- viability, T/C [3]: 31.2%
- viability, T/C [4]: 28.8%
- viability, T/C [5]: 17.8%
- viability, T/C [6]: 17.2%
- viability, T/C [7]: 57.3%
- viability, T/C [8]: 45.4%
- viability, T/C [9]: 30.3%
- viability, T/C [10]: 19.9%
- viability, T/C [11]: 14.6%
- viability, T/C [12]: 14.8%
- viability, T/C [13]: 43.2%
- viability, T/C [14]: 27.5%
- viability, T/C [15]: 22.6%
- viability, T/C [16]: 20.9%
- viability, T/C [17]: 12%
- viability, T/C [18]: 17.6%
- viability, T/C [19]: 27.7%
- viability, T/C [20]: 30.3%
- viability, T/C [21]: 24.6%
- viability, T/C [22]: 15.1%
- viability, T/C [23]: 8.69%
- viability, T/C [24]: 8.16%
- viability, T/C [25]: 15.6%
- viability, T/C [26]: 13%
- viability, T/C [27]: 19.1%
- viability, T/C [28]: 4.5%
- viability, T/C [29]: 4.07%
- viability, T/C [30]: 2.45%
- viability, T/C [31]: 0.13%
- viability, T/C [32]: 0.27%
- viability, T/C [33]: 0.18%
- viability, T/C [34]: 1.89%
- viability, T/C [35]: 0.2%
- viability, T/C [36]: 0.61%

Compound: Cc1[nH]c2ccccc2c1CCNCc1ccc(/C=C/C(=O)NO)cc1 + CN(C)c1ccc(Nc2c3ccc(NC(=O)CCN4CCCC4)cc3nc3cc(NC(=O)CCN4CCCC4)ccc23)cc1
- IC50 (second compound 0.0316 µM): 0.04 µM
- IC50 (second compound 0.1 µM): 0.0351 µM
- IC50 (second compound 0.316 µM): 0.0197 µM
- IC50 (second compound 1 µM): < 0.000999 µM
- IC50 (second compound 3.16 µM): < 0.000999 µM
- IC50 (second compound 10 µM): < 0.000999 µM
- viability, T/C [37]: 104%
- viability, T/C [38]: 121%
- viability, T/C [39]: 101%
- viability, T/C [1]: 61.3%
- viability, T/C [40]: 8.25%
- viability, T/C [3]: 0.39%
- viability, T/C [41]: 119%
- viability, T/C [42]: 102%
- viability, T/C [43]: 95.4%
- viability, T/C [7]: 56.6%
- viability, T/C [44]: 7.42%
- viability, T/C [9]: 0.13%
- viability, T/C [45]: 79.9%
- viability, T/C [46]: 75.7%
- viability, T/C [47]: 74.9%
- viability, T/C [13]: 33.1%
- viability, T/C [48]: 5.76%
- viability, T/C [15]: 0.14%
- viability, T/C [49]: 48.6%
- viability, T/C [50]: 30.2%
- viability, T/C [51]: 33.6%
- viability, T/C [19]: 15.8%
- viability, T/C [52]: 2.82%
- viability, T/C [21]: 0.27%
- viability, T/C [53]: 6.7%
- viability, T/C [54]: 4.52%
- viability, T/C [55]: 7.77%
- viability, T/C [25]: 1.86%
- viability, T/C [56]: 0.59%
- viability, T/C [27]: 0.18%
- viability, T/C [57]: 0.17%
- viability, T/C [58]: 0.22%
- viability, T/C [59]: 0.54%
- viability, T/C [31]: 2%
- viability, T/C [60]: 0.38%
- viability, T/C [33]: 0.28%
